According to PMC10369073, “Production, identification, in silico analysis, and cytoprotection on H2O2-induced HUVECs of novel angiotensin-I-converting enzyme inhibitory peptides from Skipjack tuna roes” (Frontiers in Nutrition, 2023):
Blank lines part the entries; values can stand above or below the molecule they belong to.

What was measured:
HUVECs [1] = assay: ET-1 secretion in HUVECs (assay kit); type: cell-based, human; conditions: control 55.37 ± 2.53 pg./mL
Procedure: (§1) HUVECs were cultured in DMEM supplemented with 100 µg/mL streptomycin, 10% FBS (v/v), and 100 U/mL penicillin at 37°C in a humidified 5% CO2 atmosphere for 24 h.
(§2) After treating with ACEi peptides (TRP3, TRP6, TRP9, or TRP12, respectively) for 24 h, NO and ET-1 contents were separately determined by employing human NO and ET-1 assay kit as per manufactures’ protocol ([18]).

HUVECs [2] = assay: NO production in HUVECs (assay kit); type: cell-based, human; conditions: control 33.68 ± 0.96 μM
Procedure: as §1, §2

ACE [3] = biological target: T1, ACE (Oryctolagus cuniculus, UniProt P12822); conditions: cited from earlier work; for IC50: read-out: ACEi IC50
T1 sequence (P12822 34-1310): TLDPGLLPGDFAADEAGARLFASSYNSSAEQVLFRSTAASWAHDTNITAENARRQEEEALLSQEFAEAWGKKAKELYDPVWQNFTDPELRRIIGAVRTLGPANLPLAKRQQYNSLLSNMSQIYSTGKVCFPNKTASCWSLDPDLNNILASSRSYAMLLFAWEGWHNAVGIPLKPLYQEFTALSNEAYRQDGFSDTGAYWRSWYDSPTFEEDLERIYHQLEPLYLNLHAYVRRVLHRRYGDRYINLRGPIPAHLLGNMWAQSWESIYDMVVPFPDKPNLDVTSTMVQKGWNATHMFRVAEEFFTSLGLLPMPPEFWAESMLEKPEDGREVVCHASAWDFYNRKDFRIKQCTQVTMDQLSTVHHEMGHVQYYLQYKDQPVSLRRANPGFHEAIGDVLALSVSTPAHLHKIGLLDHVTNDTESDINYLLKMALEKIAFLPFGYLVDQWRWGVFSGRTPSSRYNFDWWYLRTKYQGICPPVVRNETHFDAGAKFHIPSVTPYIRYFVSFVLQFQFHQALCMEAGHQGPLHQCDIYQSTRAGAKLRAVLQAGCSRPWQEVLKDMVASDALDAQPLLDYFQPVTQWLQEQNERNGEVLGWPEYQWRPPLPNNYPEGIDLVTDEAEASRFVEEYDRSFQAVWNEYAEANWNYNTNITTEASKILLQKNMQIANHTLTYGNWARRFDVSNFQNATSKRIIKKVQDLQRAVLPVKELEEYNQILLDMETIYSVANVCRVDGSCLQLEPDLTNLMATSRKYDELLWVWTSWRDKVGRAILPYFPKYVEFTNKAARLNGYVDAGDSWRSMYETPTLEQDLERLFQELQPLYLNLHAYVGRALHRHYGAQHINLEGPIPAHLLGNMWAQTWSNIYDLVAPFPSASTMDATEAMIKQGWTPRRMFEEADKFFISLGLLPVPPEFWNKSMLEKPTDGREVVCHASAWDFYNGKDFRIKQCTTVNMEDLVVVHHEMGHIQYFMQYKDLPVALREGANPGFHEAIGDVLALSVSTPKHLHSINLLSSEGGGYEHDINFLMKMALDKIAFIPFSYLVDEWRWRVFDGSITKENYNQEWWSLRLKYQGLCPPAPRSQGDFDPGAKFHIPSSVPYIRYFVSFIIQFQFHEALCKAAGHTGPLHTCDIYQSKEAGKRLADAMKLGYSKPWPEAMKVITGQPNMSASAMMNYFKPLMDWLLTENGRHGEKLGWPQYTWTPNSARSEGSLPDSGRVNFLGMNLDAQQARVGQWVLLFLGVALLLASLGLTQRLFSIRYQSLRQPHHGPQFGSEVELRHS
Description: Moreover, the C- and N-terminal amino acids are believed to play a crucial function in the activity of ACEi peptides ([21]). Yu et al. ([56]) reported that C-terminus (such as Trp, Tyr, Pro, or Phe) and N-terminus (such as Pro, Phe, Trp, or Met) hydrophobic amino acid residues have positive effects on the ACEi ...

ACE [4] = biological target: T1, ACE; conditions: cited from earlier work
Description: Peptide size and amino acid sequence are two key factors affecting the ACEi ability of BPs ([17], [21]). Peptide size decides the affinity between BPs and ACE because big polypeptides cannot be accommodated in and access the narrow channel of ACE ([21]). For example, VPP and IPP can easily access and bind the Zn^2+ of ACE channel, but ALPMHIR has low binding scores with ACE because it uncomfortably accesses the narrow channel ([19]). In the experiment, TRP3, TRP6, TRP9, and TRP10 are tetrapeptides or pentapeptides, and small size increases their access to the active channel of ACE, and this ha ...

[5] = biological target: T2, angiotensin-I-converting enzyme (ACE) (UniProt P12822)
T2 sequence: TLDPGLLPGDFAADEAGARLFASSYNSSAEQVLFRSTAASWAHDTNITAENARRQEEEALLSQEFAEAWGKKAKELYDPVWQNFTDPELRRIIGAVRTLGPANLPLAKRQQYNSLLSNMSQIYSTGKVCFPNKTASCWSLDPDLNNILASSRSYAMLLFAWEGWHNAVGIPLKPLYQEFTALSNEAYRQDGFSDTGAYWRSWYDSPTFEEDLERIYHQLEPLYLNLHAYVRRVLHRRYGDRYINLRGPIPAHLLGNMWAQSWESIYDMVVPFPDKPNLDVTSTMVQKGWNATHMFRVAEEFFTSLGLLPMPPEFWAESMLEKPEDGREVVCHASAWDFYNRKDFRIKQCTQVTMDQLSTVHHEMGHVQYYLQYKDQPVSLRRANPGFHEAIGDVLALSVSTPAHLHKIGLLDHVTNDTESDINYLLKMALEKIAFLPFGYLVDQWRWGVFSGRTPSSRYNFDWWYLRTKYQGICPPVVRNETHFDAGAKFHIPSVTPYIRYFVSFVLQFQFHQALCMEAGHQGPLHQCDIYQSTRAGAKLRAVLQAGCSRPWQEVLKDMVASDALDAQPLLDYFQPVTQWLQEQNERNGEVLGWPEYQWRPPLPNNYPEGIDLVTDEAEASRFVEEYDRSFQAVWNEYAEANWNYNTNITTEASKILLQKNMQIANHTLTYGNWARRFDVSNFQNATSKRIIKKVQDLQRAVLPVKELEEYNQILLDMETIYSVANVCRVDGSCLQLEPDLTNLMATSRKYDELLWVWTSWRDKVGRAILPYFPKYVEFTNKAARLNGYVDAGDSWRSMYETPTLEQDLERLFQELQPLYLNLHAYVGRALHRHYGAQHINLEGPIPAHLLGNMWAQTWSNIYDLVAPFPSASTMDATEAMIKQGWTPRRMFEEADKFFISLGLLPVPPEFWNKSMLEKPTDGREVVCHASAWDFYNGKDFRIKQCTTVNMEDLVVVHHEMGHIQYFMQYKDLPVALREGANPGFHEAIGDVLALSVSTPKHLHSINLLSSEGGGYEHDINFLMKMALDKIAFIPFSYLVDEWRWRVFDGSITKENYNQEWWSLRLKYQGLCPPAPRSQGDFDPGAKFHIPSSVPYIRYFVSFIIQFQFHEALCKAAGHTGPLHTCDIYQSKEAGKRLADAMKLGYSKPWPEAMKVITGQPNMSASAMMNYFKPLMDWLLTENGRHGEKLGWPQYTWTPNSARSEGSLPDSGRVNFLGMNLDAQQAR

[6] = biological target: T2, angiotensin-I-converting enzyme (ACE); remark: listed apart in the source

Molecule: C[C@H](CS)C(=O)N1CCC[C@H]1C(=O)O [Cap, captopril, reference compound]
- ET-1 content in HUVECs (HUVECs [1]; Cap 1.0 μM): 27.32 ± 1.28 pg/mL
- NO level in HUVECs (HUVECs [2]; Cap treatment): 53.71 ± 2.313 µM

Molecule: NC[C@H](O)c1ccc(O)c(O)c1 [NE, norepinephrine, reference compound]
- ET-1 content in HUVECs (HUVECs [1]; NE 0.5 μM): 73.57 ± 3.09 pg/mL
- NO level in HUVECs (HUVECs [2]; NE treatment (0.5 μM)): 18.59 ± 0.82 µM

Molecule: ACKEP [literature ACEi peptide]
- IC50 (ACE [3]): 126 µM

Molecule: FRKE [literature ACEi peptide]
- ACEi IC50 (ACE [3]): 6.97 mg/mL

Molecule: IYSP [literature ACEi peptide]
- affinity with ACE (docking) (ACE [4]): -8.3 kcal/mol

Molecule: KFYG [literature ACEi peptide]
- IC50 (ACE [3]): 90.5 µM

Molecule: LAPPSTRH [literature ACEi peptide]
- ACEi IC50 (ACE [3]): 1.31 mg/mL

Molecule: LSFR [literature ACEi peptide]
- affinity with ACE (docking) (ACE [4]): -8.5 kcal/mol

Molecule: LVLL [literature ACEi peptide]
- affinity with ACE (docking) (ACE [4]): -8.6 kcal/mol

Molecule: MVGSAPGVL [literature ACEi peptide]
- ACEi IC50 (ACE [3]): 3.09 mg/mL

Molecule: NFRPQ [literature ACEi peptide]
- ACEi IC50 (ACE [3]): 4.28 mg/mL

Molecule: SHGEY [literature ACEi peptide]
- affinity with ACE (docking) (ACE [4]): -8.7 kcal/mol

Molecule: SPYGF [literature ACEi peptide]
- affinity with ACE (docking) (ACE [4]): -9.7 kcal/mol

Molecule: SWISS [literature ACEi peptide]
- affinity with ACE (docking) (ACE [4]): -8.6 kcal/mol

Molecule: YEGDP [literature ACEi peptide]
- affinity with ACE (docking) (ACE [4]): -8.8 kcal/mol

Molecule: YLRLHF [literature ACEi peptide]
- ACEi IC50 (ACE [3]): 1.26 mg/mL

Molecule: YVVF [literature ACEi peptide]
- affinity with ACE (docking) (ACE [4]): -9.8 kcal/mol

- ACEi activity (IC50): inhibition of ACE enzyme activity, substrate FAPGG, 37°C, product measured by HPLC at 228 nm [5]: 0.49 mg/mL
- ACEi rate (percent inhibition of ACE activity) of the RP-HPLC isolated peptide at 1.5 mg/mL [6]: 83.5%
Molecule: YSHM [TRP9 (YSHM; Tyr-Ser-His-Met)]

- ACEi activity (IC50): inhibition of ACE enzyme activity, substrate FAPGG, 37°C, product measured by HPLC at 228 nm [5]: 0.93 mg/mL
- ACEi rate (percent inhibition of ACE activity) of the RP-HPLC isolated peptide at 1.5 mg/mL [6]: 69.5%
Molecule: WGESF [TRP3 (WGESF; Trp-Gly-Glu-Ser-Phe)]

- ACEi activity (IC50): inhibition of ACE enzyme activity, substrate FAPGG, 37°C, product measured by HPLC at 228 nm [5]: 0.79 mg/mL
- ACEi rate (percent inhibition of ACE activity) of the RP-HPLC isolated peptide at 1.5 mg/mL [6]: 75.4%
Molecule: IKSW [TRP6 (IKSW; Ile-Lys-Ser-Trp)]

- ACEi activity (IC50): inhibition of ACE enzyme activity, substrate FAPGG, 37°C, product measured by HPLC at 228 nm [5]: 0.67 mg/mL
- ACEi rate (percent inhibition of ACE activity) of the RP-HPLC isolated peptide at 1.5 mg/mL [6]: 78.2%
Molecule: WSPGF [TRP12 (WSPGF; Trp-Ser-Pro-Gly-Phe)]
